Results reported in US11786525B1, “High-efficiency anti-tumor nano-drug delivery system containing hydralazine and preparation method thereof” (SHANGHAI INSTITUTE FOR ADVANCED STUDY ZHE JIANG UNIVERSITY, priority 2022, dated 2023).

Assays:
[1] = tested on: mouse breast cancer cells (4T1); assay: Cytotoxicity to 4T1 cells; assay type: cell-based; details: incubated 48 h, different concentrations
Procedure: (§1) At the cellular level, the cytotoxicity of HDZ to cells is first tested. HDZ at different concentrations is incubated with mouse breast cancer cells (4T1), human breast cancer cells (MBA-MD-231), and vascular epithelial cells (HUVEC) for 48 h. […] Then, the cytotoxicity of D-NPs, C-NPs, H-NPs, and DOX with 4T1, MBA-MD-231, and HUVEC cells is subsequently tested. The experimental results are shown in FIG. 3B, FIG. 3C and FIG. 3D. […] This is because there is a polypeptide cRGD on the surface of C-NPs targeting the integrin αvβ3 overexpressed on the surface of 4T1 and MBA-MD-231 tumor cells, which can make more C-NPs enter the tumor cells and improve their cytotoxicity.

[2] = tested on: human breast cancer cells (MBA-MD-231); assay: Cytotoxicity to MBA-MD-231 cells; assay type: cell-based; details: incubated 48 h, different concentrations
Procedure: as §1

[3] = tested on: vascular epithelial cells (HUVEC); assay: Cytotoxicity to HUVEC cells; assay type: cell-based; details: incubated 48 h, different concentrations
Procedure: as §1

4T1 tumor-bearing mice = assay: Biodistribution in 4T1 tumor-bearing mice (tissue grinding, fluorescence analysis); assay type: in vivo; details: at 48 h versus 24 h
Procedure: In addition, in order to detect the difference in the distribution of free doxorubicin, D-NPs and H-NPs in tumors and other organs, 4T1 tumor-bearing mice are sacrificed at different time intervals after intravenous injection of different drugs, the organs of the mice are taken out for tissue grinding and extraction, and finally fluorescence analysis is performed. It can be seen that compared with free doxorubicin, D-NPs and H-NPs have higher enrichment rates in various organs and tumors of mice, which are about 1.52 and about 1.81 times (24 h) higher than free doxorubicin, respectively. […] From the above cytotoxicity and blood circulation experiments, it can be inferred that this is because compared with free doxorubicin, D-NPs and H-NPs have longer blood circulation capacity in the blood and are not easy to be cleared by cells.

| change of enrichment in the tumor site with extension of time (4T1 tumor-bearing mice) | Structure (SMILES) | cytotoxicity [1] | cytotoxicity [2] | cytotoxicity [3] |
| --- | --- | --- | --- | --- |
| – | NNc1nncc2ccccc12 [HDZ, hydralazine] | not very toxic | not very toxic | not very toxic |
| decreases | COc1cccc2c1C(=O)c1c(O)c3c(c(O)c1C2=O)C[C@@](O)(C(=O)CO)C[C@@H]3O[C@H]1C[C@H](N)[C@H](O)[C@H](C)O1 [free doxorubicin, doxorubicin] | – | – | – |
